# Columns and labels:
# [1] = target: T1, Glycogen phosphorylase, liver form (Homo sapiens, UniProt P06737); assay: Inhibition of human liver glycogen phosphorylase
# T1 sequence (P06737 whole entry): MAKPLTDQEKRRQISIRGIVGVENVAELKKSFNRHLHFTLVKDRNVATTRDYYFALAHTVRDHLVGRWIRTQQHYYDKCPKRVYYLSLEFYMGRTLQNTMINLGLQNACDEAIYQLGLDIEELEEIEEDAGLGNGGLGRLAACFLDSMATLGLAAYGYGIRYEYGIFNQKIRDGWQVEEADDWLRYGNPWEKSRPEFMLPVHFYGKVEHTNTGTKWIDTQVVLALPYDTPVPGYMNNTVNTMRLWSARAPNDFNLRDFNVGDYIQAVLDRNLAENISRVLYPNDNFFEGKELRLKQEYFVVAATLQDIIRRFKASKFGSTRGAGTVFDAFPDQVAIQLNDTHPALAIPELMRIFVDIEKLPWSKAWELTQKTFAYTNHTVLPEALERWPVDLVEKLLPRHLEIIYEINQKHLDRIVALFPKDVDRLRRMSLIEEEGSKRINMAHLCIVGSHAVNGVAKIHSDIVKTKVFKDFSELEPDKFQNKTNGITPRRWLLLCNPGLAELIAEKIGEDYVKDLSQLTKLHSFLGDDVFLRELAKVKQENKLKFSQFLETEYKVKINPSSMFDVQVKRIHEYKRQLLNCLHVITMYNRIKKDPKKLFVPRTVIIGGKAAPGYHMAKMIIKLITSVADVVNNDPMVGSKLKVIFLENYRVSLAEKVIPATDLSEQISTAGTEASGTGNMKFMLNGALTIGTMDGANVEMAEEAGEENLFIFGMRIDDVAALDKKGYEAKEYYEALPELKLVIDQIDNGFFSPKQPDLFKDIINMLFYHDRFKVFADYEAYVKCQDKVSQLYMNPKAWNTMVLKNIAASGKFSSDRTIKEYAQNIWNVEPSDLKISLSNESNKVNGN
# [2] = Non-competitive inhibition of rabbit muscle glycogen phosphorylase b using constant concentration of AMP, glycogen and varying concentration of glucose-1-phosphate as substrate; assay type: tissue-based, Oryctolagus cuniculus, Muscle tissue
# [3] = target: T2, Glycogen phosphorylase, muscle form (Oryctolagus cuniculus, UniProt P00489); assay: Inhibition of rabbit muscle glycogen phosphorylase
# T2 sequence (P00489 whole entry): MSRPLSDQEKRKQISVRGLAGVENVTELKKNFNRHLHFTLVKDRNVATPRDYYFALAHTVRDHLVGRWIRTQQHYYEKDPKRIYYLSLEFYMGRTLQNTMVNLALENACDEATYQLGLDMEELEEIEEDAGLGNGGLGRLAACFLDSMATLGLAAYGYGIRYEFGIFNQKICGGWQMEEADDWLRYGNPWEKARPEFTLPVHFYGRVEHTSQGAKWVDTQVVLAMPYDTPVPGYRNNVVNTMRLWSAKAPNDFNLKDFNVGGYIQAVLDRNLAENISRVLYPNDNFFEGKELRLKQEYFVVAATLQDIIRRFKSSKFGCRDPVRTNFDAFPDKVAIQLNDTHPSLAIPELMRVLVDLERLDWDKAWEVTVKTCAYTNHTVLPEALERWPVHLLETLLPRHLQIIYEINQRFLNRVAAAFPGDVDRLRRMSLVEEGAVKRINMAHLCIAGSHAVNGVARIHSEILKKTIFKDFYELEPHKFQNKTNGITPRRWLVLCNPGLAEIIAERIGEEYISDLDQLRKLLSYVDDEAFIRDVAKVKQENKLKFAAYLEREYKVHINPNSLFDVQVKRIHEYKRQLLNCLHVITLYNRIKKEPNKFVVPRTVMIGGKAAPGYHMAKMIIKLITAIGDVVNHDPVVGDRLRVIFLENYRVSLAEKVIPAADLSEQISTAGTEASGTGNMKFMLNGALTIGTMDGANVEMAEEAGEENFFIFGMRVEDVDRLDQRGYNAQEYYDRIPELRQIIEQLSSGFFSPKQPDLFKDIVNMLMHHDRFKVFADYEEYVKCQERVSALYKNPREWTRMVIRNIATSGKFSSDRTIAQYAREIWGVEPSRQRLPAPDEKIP
# [4] = Competitive inhibition of rabbit muscle glycogen phosphorylase b using constant concentration of glucose-1-phosphate, glycogen and varying concentration of AMP as substrate; assay type: tissue-based, Oryctolagus cuniculus, Muscle tissue
IC50 [1] [µM],Ki [2] [µM],Ki [3] [µM],Ki [4] [µM],Compound
2.5,5.47,0.46,0.2,O=C(O)C[C@H](OC(=O)/C=C/c1ccc(O)cc1)[C@@H](OC(=O)/C=C/c1ccc(O)cc1)C(=O)O
–,300,–,11.3,O=C(/C=C/c1ccc(O)cc1)O[C@@H](C(=O)O)[C@@H](OC(=O)/C=C/c1ccc(O)cc1)C(=O)O
–,71.4,–,5.68,O=C(/C=C/c1ccc(O)cc1)O[C@H](C(=O)O)[C@@H](OC(=O)/C=C/c1ccc(O)cc1)C(=O)O
–,109,–,26.4,O=C(/C=C/c1ccc(O)cc1)O[C@H](C(=O)O)[C@H](OC(=O)/C=C/c1ccc(O)cc1)C(=O)O

# Reference: ChEMBL document CHEMBL2331418, “Synthesis of tartaric acid analogues of FR258900 and their evaluation as glycogen phosphorylase inhibitors” (Bioorg Med Chem Lett, 2013)
